Three molecules from patent publication US20250034139A1, “AMINE COMPOUNDS HAVING ANTI-INFLAMMATORY, ANTIFUNGAL, ANTIPARASITIC, AND ANTICANCER ACTIVITY” (PHARMA CINQ, LLC, priority 2013, published 2025) can be followed below.

In series [1] the test system is 4T1 mouse mammary breast cancer cells. As to the kind of experiment: Example O: syngeneic 4T1 breast cancer growth in Balb/C mice. It counts as in vivo. Particulars: 4T1 in female Balb/C mice; for Final Tumor Volume: 120 μmol/kg/day oral gavage, day 2 to day 30; for Δ BW % / Final Body Weight / Initial Body Weight: 120 μmol/kg/day oral; for Δ BW %: final vs initial body weight; for Final Body Weight: in g (unit assumed); for Initial Body Weight: initial (baseline). The protocol:
Cancer models in mice generally either involve syngeneic murine tumors in immunocompetent mice or xenografts of human tumors in immunocompromised mice. […] Mice received test compounds by oral gavage in 1% hydroxypropylmethylcellulose from day 2 until day 30. Tumor growth was assessed by caliper measurements twice per week and tumor weight after necropsy, and body weight was also monitored. Treatment groups were: • 1. […] HPMC) • 2. CI (120 μmol/kg/day) • 3. BA (120 μmol/kg/day) • 4. CP (120 μmol/kg/day) • 5. CQ (120 μmol/kg/day) • 6. AA (120 μmol/kg/day) • 7. AC (120 μmol/kg/day)

Series [2] deals with Candida albicans strain 3153. Nature of the series: Example H: Candida albicans growth inhibition (OD 600 nm). It counts as cell-based. In outline: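 Growth inhibition computed as % versus DMSO control from OD600 after ~24 h at 30° C. Inoculum: washed overnight YPD culture of strain 3153 at 3.5×10^4 CFU/ml in YPD; final compound concentrations 0, 5, 10, 16, 22, 30, 40 μM, duplicate wells.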

The test system of series [3] is 4T1 murine breast cancer cells. As to the kind of experiment: Example S: in vitro anticancer screen, 4T1 cells, Wst1. It counts as cell-based, mouse. Particulars: Mus musculus, 4T1, 18 h; for viability at 1 µM: read-out: 4T1 1 μM, percent of cancer cell survival relative to vehicle treated cells; for viability at 5 µM: read-out: 4T1 5 μM, percent of cancer cell survival relative to vehicle treated cells. In outline: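 Read-out is Wst1 absorbance (450 nm, reference 630 nm) after roughly 2 hr dye incubation, giving percent cell survival versus vehicle. Before that, compounds at 1 μM or 5 μM were applied for 18 hr to 4T1 cells plated at 1×10^4 per well.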

For series [4], the system named is PC-3 prostate cancer cells. As to the kind of experiment: Example T: sensitisation of PC-3 cells to doxorubicin, oxaliplatin, paclitaxel or vincristine, Wst1. It counts as cell-based, human. Particulars: for Doxorubicin 3.5 μM: percent cell survival / Oxaliplatin 100 μM: percent cell survival / Paclitaxel 50 μM: percent cell survival / Vincristine 100 nM: percent cell survival: chemotherapy agent alone normalized to 100%.

The subject of a further series is THP-1 cells. Nature of the series: Example D: LPS-triggered THP-1 cell death assay, acute/5-hour and chronic/48-hour. The series is classed as cell-based, Human. Particulars: for Viable cell percent change, Chronic/48-hour, Mean: 10 ng/ml LPS, 0.1 μM test compound. The protocol:
Compounds of the invention were tested at 0.1 μM versus AC in the LPS-triggered THP-1 cell death assay. Both acute/5-hour and chronic/48-hour phases of cell death were assessed. Compounds were screened in batches with DMSO as the negative control and AC as the high activity control.

For series [5], the system named is PC3 human prostate cancer cells. Nature of the series: Example S: in vitro anticancer screen, PC-3 cells, Wst1. The series is classed as cell-based. To be noted: Homo sapiens, read-out: PC-3, percent of cancer cell survival relative to vehicle treated cells. The procedure, abridged:
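Values give percent survival relative to vehicle, read by Wst1 absorbance (450/630 nm) after 2 h dye incubation, in triplicate. Cells were seeded at 2×10^4/well and treated about 20 h with compound at 0.4, 0.5 or 2.5 μM, depending on compound.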

Series [6] relates to Cryptococcus neoformans (serotype A). Nature of the series: Example L: Cryptococcus neoformans (serotype A) growth inhibition. It counts as cell-based. To be noted: OD of 26 hour reading, 30° C., XLfit. Here is the method:
Cryptococcus neoformans (serotype A) were plated in 96 well plates with 144 μl/well of 5×10e5 CFU/ml in YPD growth medium. Diluted compounds were then added to each well with concentration ranged from 0.05 to 10 μM as final concentration in duplicates. The plates were inoculated at 30° C. Two readings of OD at 600 nm were measured after 18 hr and […] treatments.
C12-imidazol had relative weak activity against Cryptococcus serotype A at low concentration. Data plotted was based on 26 hour reading because 18 hour reading was too low.
• 1. Pick a single colony of Cryptococcus from the Sabouraud Dextrose agar plate using the inoculum loop and inoculate into a 125 ml flask containing 25 ml of YPD growth medium • 2. Incubate at 30° C. with shaking at 220 rpm for 24 hours with loosen lid to allow air in and facilitates growth. • 3. Examine an aliquot of the culture under a microscope for yeast cell morphology and lack of bacterial contamination. • 4. Dilute the overnight culture with YPD medium at 1:100 dilution and count the number of cells as 8×10^6 cfu/ml. • 5. Make a final concentration of cells suspension at 5×10^5 cfu/ml in YPD medium after the stock culture had been stored at 4° C. for 3 days. • 6. Plate 144 μl/well of 5×10^5 cfu/ml cell suspension on 96-well plates. Part-II: Cryptococcus Growth Inhibition Testing with Compounds • 1. From 10 mM DMSO stock solutions, make serial dilutions of compounds to 0.0013, 0.0025, 0.0125, 0.025, 0.05, 0.125 and 0.25 mM solution • 2. Add 6 ul each of diluted compound solutions per well in duplicates. The final concentrations were 0, 0.05, 0.1, 0.5, 1.0, 2.0, 5.0 and 10 micromolar. • 3. Incubated all plates at 30° C. overnight with 175 rpm shaking. • 4. Read absorbance at OD600 after 18 and 26 hours for each plate. • 5. Calculated the % inhibition and IC50 of each compound against the untreated cell.

The test system of another series is S. cerevisiae. Nature of the series: Example I: Saccharomyces cerevisiae growth inhibition (OD 600 nm). The series is classed as cell-based. To be noted: 18 hour incubation at 30° C., OD 600 nm, XLfit.
The subject of another series is Trichophyton rubrum. Nature of the series: Example J: Trichophyton rubrum growth inhibition, scoring by eye. The series is classed as cell-based. To be noted: 6 days at 30° C., tested 6 to 40 μM; read-out: MIC, μM (maximum inhibition concentration, scoring by eye). The protocol: Trichophyton grown on two agar plates were collected by scraping into 10 ml saline and filtered through 8 μm filters. […] This experiment included some active compounds from previous experiment and added several untested compounds. […] Following table listed the maximum inhibition concentration (MIC) based on scoring by eye. Scrape frozen Trichophyton culture from ATCC vial and suspended in 100 μl PDB, and then plate on a PDA plate. Incubate plate at 30 C for 4 days. The plate was covered almost full. […] Take OD of collected solution at 520 nm and 600 nm: […] Part-II: […] Add 6 μl each of diluted compound solutions per well in triplicates. […] Wrap the plates with […] incubate all plates at 30° C. for 6 days. • Take picture of the plates on KODAK imager with 17 captures of 1.5 sec/capture for total of 25.5 second exposure.

Series [7] deals with Cryptococcus neoformans (serotype D). Nature of the series: Example K: Cryptococcus neoformans (serotype D) growth inhibition. To be noted: OD of 48 hour reading, 37° C., tested 4 to 60 μM, XLfit. It counts as cell-based. The protocol: Cryptococcus neoformans (serotype D) were plated in 96 well plates with 144 μl/well of 8×10e5 CFU/ml in YM growth medium. Diluted compounds were then added to each well with concentration ranged from 4 to 60 μM as final concentration in duplicates. The plates were inoculated at 37° C. for total of 48 hours. Two readings of OD at 600 nm were measured after 30 and 48 hour treatments.
• 1. Pick a single colony of Cryptococcus from the YM agar plate using the inoculum loop and inoculate into a 125 ml flask containing 25 ml of YM growth medium. • 2. Incubate at 37° C. with shaking at 220 rpm for 24 hours with loosen lid to allow air in and facilitates growth. • 3. Examine an aliquot of the culture under a microscope for yeast cell morphology and lack of bacterial contamination. • 4. Dilute the overnight culture with YM medium at 1:100 dilution and count the number of cells as 1×10^6 cfu/ml. • 5. Make a final concentration of cells suspension at 8×10^5 cfu/ml in YM medium. • 6. Plate 144 μl/well of 8×10^5 cfu/ml cell suspension on 96-well plates. Part-II: Cryptococcus Growth Inhibition Testing with Compounds • 1. From 10 mM DMSO stock solutions, make serial dilutions of compounds to 0.1, 0.2, 0.3, 0.5, 1.0 and 1.5 mM solution. • 2. Add 6 ul each of diluted compound solutions per well in duplicates. The final concentrations were 0, 4, 8, 12, 20, 40 and 60 micromolar. • 3. Incubated all plates at 37° C. overnight (30 hours) with 150 rpm shaking. • 4. Read absorbance at OD600 for each plate. • 5. Leave plates in 37° C. incubator for another day and read absorbance at OD600 again at 48 hours to ensure the inhibitory effect of the compounds. • 6. Calculated the % inhibition and IC50 of each compound against untreated cells.

Converted amounts (≈) assume the structure as drawn. Where two headings read alike, the source gives them in different places.

In the case of `CCCCCCOc1ccc(OCCNc2ccnc3ccccc23)cc1` [BA, N-{2-[4-(Hexyloxy)phenoxy]ethyl}quinolin-4-amine], in [1], the “Final Tumor Volume” value is listed as 641 ± 159 mm^3, the “Δ BW %” value is listed as −2.7%, the “Final Body Weight” value came out at 24.8 ± 2.0 and the “Initial Body Weight” value was determined as 25.5 ± 1.5 g. For the same molecule, the MIC in series [2] (Candida albicans, 3153, 24 hrs at 30° C., YPD, XLfit, read-out: MIC (uM) (99% of inhibition of fungal growth)) worked out at 96.7 µM (≈ 35.3 µg/mL). Besides, the IC50 in series [2] (Candida albicans, 3153, read-out: IC50 (uM) (50% inhibition of fungal growth), 24 hrs at 30° C., YPD, XLfit) was 34.6 µM. Besides, the viability at 1 µM in series [3] (1 μM, 18 hr, Wst1) was 71.7%. The viability at 5 µM in [3] (5 μM, 18 hr, Wst1) turned out to be 220%. The viability at 1.5 µM in series [4] (Homo sapiens, PC-3 cells, compound 1.5 μM alone, 72 hours, Wst1, vehicle = 100, read-out: No Chemo: percent cell survival) is 42.4%. In series [4] (PC-3 cells, compound 1.5 μM + doxorubicin 3.5 μM, 72 hours), the “Doxorubicin 3.5 μM: percent cell survival” value stood at 167.3%. Moreover, the “Oxaliplatin 100 μM: percent cell survival” value in series [4] (PC-3 cells, compound 1.5 μM + oxaliplatin 100 μM, 72 hours) is 146.7%. The “Paclitaxel 50 μM: percent cell survival” value in series [4] (PC-3 cells, compound 1.5 μM + paclitaxel 50 μM, 72 hours) worked out at 145.7%. The “Vincristine 100 nM: percent cell survival” value in series [4] (PC-3 cells, compound 1.5 μM + vincristine 100 nM, 72 hours) is given as 148.7%. For the same molecule, in the series with THP-1 cells, the “Viable cell percent change, Chronic/48-hour, Mean” value was found to be 41.79%. Moreover, the viability at 1.5 µM in series [5] (PC-3, 1.5 μM, approximately 20 hours, Wst1) was 42.4%.

`CCCCOCCCCCCCCNc1ccnc2ccccc12` [CI, N-(8-Butoxyoctyl)quinolin-4-amine]: in [1], the “Final Tumor Volume” value was 702 ± 244 mm^3, the “Δ BW %” value is given as −5.5%, the “Final Body Weight” value was found to be 20.6 ± 0.6 and the “Initial Body Weight” value came to 21.8 ± 0.8 g. Further, in series [3], the viability at 1 µM amounted to 28.3% and the viability at 5 µM turned out to be 19.1%. Further, the viability at 0.4 µM in series [4] (Homo sapiens, PC-3, 72 h, read-out: No Chemo: percent cell survival) came out at 77.9%. In addition, the “Doxorubicin 3.5 μM: percent cell survival” value in [4] (PC-3 cells, compound 0.4 μM + doxorubicin 3.5 μM, 72 hours) is reported as 67.6%. In [4] (PC-3 cells, compound 0.4 μM + oxaliplatin 100 μM, 72 hours), the “Oxaliplatin 100 μM: percent cell survival” value turned out to be 21.8%. For the same molecule, the “Paclitaxel 50 μM: percent cell survival” value in series [4] (PC-3 cells, compound 0.4 μM + paclitaxel 50 μM, 72 hours) was 48.7%. Also, the “Vincristine 100 nM: percent cell survival” value in series [4] (PC-3 cells, compound 0.4 μM + vincristine 100 nM, 72 hours) came to 33.8%. Further, the “Viable cell percent change, Chronic/48-hour, Mean” value in the series on THP-1 cells was found to be 28.46%. Also, the “activity relative to AC in the LPS-triggered THP-1 cell death assay, in words” value with THP-1 cells (0.1 μM, 5-hour and 48-hour time points) was “equivalent activity to AC at both the 5-hour and 48-hour time points”. Besides, the viability at 0.4 µM in series [5] (PC-3, 20 h) was 77.9%.

`CCCCCCCCCCCCn1ccnc1` [Compound C12-Im, reference compound]: in series [6], the “MIC, uM (concentration for maximum - 99% of inhibition)” value came to 10.83 µM. The IC50 in [6] (read-out: IC50, uM (concentration for 50% of inhibition)) was determined as 3.67 µM; in the series with S. cerevisiae (read-out: IC50, uM (50% inhibition of fungal growth)) it was 15.2 µM; in series [7] (read-out: IC50 (concentration for 50% of inhibition)), 1810 nM. Further, the “MIC, uM (99% of inhibition of fungal growth)” value against S. cerevisiae is 29.04 µM. Moreover, the MIC in the series on Trichophyton rubrum was found to be 18 µM (≈ 4.26 µg/mL). The “MIC (concentration for maximum-99% of inhibition)” value in [7] worked out at 20.54.
